# Legend:
# Assay in all cases: KINOMEscan competition binding
# Conditions in all cases: compound 1.0 µM
# AURKB (human) = AURKB (human) (UniProt Q96GD4)
# MAPKAPK2 (human) = MAPKAPK2 (human) (UniProt P49137)
# GRK1 (human) = GRK1 (human) (UniProt Q15835)
# [1] = test system: FGFR3 (human), P22607 [G697C]
# FLT3 (human) = FLT3 (human) (UniProt P36888)
# DDR2 (human) = DDR2 (human) (UniProt Q16832)
# MINK1 (human) = MINK1 (human) (UniProt Q8N4C8)
# EPHA6 (human) = EPHA6 (human) (UniProt Q9UF33)
# [2] = test system: EGFR (human), P00533 [P753S; 747-752 del]
# ROS1 (human) = ROS1 (human) (UniProt P08922)
# MAP2K1 (human) = MAP2K1 (human) (UniProt Q02750)
# [3] = test system: FLT3 (human), P36888 [D835H]
# STK32C (human) = STK32C (human) (UniProt Q86UX6)
# NEK6 (human) = NEK6 (human) (UniProt Q9HC98)
# SGK3 (human) = SGK3 (human) (UniProt Q96BR1)
# OXSR1 (human) = OXSR1 (human) (UniProt O95747)
# TTK (human) = TTK (human) (UniProt P33981)
# MAP4K3 (human) = MAP4K3 (human) (UniProt Q8IVH8)
# FGFR1 (human) = FGFR1 (human) (UniProt P11362)
# Sequence of FGFR1 (human) (P11362 whole entry, looked up): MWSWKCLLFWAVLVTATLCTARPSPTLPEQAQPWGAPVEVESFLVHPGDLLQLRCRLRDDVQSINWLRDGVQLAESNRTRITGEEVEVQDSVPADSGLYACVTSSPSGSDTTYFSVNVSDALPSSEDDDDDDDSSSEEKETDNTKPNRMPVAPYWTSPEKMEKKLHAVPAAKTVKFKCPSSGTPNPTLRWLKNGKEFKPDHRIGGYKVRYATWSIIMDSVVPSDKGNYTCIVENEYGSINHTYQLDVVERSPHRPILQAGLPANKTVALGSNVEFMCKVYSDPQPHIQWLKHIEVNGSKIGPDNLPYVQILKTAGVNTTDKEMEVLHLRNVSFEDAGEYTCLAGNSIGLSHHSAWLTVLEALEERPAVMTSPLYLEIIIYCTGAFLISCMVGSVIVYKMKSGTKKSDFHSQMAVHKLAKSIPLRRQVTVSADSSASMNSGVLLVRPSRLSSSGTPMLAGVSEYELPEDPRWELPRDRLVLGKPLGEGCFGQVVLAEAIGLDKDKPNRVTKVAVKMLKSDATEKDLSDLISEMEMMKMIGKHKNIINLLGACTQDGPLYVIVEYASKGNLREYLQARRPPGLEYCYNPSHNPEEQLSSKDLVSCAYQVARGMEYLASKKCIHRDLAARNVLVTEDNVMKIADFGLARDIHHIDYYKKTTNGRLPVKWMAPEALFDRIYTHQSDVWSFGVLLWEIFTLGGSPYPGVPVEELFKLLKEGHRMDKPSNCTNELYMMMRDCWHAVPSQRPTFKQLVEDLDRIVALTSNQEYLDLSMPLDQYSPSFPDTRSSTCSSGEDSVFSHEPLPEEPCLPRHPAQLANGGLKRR
# MARK3 (human) = MARK3 (human) (UniProt P27448)
# DCLK1 (human) = DCLK1 (human) (UniProt O15075)
# CAMK4 (human) = CAMK4 (human) (UniProt Q16566)
# MET (human) = MET (human) (UniProt P08581)
# MST1R (human) = MST1R (human) (UniProt Q04912)
# CHEK1 (human) = CHEK1 (human) (UniProt O14757)
# Sequence of CHEK1 (human) (O14757 whole entry, looked up): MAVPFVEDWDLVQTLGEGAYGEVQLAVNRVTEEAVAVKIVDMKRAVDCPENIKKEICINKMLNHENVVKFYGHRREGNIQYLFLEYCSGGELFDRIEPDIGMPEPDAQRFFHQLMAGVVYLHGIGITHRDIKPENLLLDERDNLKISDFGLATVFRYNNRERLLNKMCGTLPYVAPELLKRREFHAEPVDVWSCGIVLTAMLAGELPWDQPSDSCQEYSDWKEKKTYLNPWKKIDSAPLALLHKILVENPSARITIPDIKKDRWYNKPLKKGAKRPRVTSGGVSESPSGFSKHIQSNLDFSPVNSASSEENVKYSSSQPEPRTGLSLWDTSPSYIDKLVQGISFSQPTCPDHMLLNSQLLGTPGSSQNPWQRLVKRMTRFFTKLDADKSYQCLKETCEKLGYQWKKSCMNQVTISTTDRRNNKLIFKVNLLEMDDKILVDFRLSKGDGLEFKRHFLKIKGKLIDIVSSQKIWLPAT
# MAPK13 (human) = MAPK13 (human) (UniProt O15264)
# FGFR2 (human) = FGFR2 (human) (UniProt P21802)
# Sequence of FGFR2 (human) (P21802 whole entry, looked up): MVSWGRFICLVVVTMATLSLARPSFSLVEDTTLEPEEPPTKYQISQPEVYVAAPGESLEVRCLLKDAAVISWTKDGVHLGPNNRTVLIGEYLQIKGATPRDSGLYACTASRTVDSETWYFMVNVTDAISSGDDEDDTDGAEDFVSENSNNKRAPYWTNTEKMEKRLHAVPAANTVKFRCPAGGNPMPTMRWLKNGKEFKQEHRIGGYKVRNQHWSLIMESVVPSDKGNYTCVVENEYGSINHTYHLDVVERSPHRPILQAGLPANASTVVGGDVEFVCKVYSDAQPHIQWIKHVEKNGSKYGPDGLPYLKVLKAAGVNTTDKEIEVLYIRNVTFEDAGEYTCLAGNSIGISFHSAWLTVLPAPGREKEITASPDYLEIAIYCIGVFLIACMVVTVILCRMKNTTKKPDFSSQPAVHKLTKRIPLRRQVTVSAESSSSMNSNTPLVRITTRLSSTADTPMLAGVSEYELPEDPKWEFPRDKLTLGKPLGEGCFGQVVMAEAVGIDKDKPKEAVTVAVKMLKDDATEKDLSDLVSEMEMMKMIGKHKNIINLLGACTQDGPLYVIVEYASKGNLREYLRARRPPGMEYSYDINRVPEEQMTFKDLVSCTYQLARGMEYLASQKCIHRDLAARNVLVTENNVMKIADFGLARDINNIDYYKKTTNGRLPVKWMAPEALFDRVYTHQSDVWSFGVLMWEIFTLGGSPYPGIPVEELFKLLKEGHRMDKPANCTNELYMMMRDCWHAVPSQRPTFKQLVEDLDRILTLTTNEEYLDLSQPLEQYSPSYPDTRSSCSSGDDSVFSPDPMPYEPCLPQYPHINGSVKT
# PTK6 (human) = PTK6 (human) (UniProt Q13882)
# TESK1 (human) = TESK1 (human) (UniProt Q15569)
# ULK3 (human) = ULK3 (human) (UniProt Q6PHR2)
# ROCK2 (human) = ROCK2 (human) (UniProt O75116)
# CSNK2A1 (human) = CSNK2A1 (human) (UniProt P68400)
# CAMKK1 (human) = CAMKK1 (human) (UniProt Q8N5S9)
# MAK (human) = MAK (human) (UniProt P20794)
# Sequence of MAK (human) (P20794 whole entry, looked up): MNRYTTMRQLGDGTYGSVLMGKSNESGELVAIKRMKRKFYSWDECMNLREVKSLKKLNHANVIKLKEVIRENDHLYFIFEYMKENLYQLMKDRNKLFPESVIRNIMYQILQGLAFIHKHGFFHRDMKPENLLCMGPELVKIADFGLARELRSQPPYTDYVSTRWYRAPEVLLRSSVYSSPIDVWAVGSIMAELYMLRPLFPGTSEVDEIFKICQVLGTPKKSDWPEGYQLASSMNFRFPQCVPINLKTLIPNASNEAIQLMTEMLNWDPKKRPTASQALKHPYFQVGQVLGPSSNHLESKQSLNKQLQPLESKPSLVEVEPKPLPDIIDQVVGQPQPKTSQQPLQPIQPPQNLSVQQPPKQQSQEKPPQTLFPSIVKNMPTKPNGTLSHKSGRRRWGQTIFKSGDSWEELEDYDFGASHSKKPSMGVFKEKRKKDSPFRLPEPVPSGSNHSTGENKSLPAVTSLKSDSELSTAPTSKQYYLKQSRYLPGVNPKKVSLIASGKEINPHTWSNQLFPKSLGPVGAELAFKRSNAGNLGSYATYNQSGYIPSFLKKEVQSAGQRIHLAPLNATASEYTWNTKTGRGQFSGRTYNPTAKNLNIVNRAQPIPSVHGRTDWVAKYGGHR
# STK4 (human) = STK4 (human) (UniProt Q13043)
# CDK3 (human) = CDK3 (human) (UniProt Q00526)
# Sequence of CDK3 (human) (Q00526 whole entry, looked up): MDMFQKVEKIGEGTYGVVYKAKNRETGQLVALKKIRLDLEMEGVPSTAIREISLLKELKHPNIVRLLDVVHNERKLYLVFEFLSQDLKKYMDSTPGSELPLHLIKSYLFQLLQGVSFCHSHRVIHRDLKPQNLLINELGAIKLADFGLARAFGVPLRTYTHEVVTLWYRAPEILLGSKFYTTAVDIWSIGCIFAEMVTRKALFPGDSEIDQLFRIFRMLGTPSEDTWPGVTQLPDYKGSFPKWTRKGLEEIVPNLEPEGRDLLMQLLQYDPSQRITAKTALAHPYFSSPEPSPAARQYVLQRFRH
# SRMS (human) = SRMS (human) (UniProt Q9H3Y6)
# NTRK2 (human) = NTRK2 (human) (UniProt Q16620)
# MAPK6 (human) = MAPK6 (human) (UniProt Q16659)
# CSNK2A2 (human) = CSNK2A2 (human) (UniProt P19784)
# RIOK3 (human) = RIOK3 (human) (UniProt O14730)
# Sequence of RIOK3 (human) (O14730 whole entry, looked up): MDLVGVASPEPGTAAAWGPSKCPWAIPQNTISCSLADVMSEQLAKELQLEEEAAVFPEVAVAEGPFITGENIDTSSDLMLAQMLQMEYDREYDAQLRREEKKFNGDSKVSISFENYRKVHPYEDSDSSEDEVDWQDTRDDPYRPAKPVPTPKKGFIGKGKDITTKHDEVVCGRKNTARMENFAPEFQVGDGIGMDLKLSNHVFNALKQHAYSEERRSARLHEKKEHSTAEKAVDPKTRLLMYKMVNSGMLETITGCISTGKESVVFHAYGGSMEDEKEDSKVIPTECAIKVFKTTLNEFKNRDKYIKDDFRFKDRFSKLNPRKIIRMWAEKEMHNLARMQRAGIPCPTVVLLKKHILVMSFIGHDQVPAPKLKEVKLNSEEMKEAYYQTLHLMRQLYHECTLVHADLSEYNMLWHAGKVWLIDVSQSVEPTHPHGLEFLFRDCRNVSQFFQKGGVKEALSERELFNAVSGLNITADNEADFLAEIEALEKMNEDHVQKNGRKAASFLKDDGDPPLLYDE
# AKT3 (human) = AKT3 (human) (UniProt Q9Y243)
# AXL (human) = AXL (human) (UniProt P30530)
# Sequence of AXL (human) (P30530 whole entry, looked up): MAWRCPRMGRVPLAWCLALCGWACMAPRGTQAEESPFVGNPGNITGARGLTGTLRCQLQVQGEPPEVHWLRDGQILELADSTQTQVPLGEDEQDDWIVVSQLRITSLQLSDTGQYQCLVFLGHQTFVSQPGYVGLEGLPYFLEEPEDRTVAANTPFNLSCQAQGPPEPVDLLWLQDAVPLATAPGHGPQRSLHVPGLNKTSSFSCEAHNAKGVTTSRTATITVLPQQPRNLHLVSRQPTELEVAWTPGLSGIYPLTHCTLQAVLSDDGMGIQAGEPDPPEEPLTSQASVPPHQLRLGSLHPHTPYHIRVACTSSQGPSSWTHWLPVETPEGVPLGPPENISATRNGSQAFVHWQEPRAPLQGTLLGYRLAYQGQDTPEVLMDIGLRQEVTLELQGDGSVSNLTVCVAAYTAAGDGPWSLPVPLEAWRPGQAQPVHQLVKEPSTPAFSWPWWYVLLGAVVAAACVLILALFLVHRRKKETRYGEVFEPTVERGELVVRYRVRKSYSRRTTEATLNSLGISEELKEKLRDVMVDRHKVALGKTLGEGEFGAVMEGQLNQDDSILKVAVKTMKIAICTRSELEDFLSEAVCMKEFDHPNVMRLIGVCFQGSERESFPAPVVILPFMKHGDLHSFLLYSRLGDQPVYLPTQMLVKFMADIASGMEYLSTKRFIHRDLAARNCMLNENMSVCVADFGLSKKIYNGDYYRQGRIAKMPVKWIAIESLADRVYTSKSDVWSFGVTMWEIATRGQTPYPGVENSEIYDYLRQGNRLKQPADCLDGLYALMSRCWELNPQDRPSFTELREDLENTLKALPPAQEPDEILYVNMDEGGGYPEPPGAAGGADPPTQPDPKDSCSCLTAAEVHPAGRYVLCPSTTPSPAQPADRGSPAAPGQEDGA
# Sequence of GRK1 (human) (Q15835 whole entry, looked up): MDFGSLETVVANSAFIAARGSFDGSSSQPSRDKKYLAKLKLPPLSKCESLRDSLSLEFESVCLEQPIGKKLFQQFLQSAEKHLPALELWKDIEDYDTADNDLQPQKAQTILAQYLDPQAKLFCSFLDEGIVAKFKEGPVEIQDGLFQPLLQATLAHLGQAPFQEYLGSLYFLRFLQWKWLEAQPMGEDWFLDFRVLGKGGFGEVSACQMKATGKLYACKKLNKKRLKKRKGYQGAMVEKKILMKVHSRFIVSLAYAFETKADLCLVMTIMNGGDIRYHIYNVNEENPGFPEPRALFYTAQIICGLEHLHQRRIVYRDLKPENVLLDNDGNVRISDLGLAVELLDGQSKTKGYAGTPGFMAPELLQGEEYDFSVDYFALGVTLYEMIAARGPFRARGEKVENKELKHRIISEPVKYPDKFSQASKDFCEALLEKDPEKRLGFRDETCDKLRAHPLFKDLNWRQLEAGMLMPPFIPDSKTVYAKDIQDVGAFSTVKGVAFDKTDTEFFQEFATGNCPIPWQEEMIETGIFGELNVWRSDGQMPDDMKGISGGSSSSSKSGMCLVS
compound,measurement,setting,value
COCCNCCCn1c(C(=O)CF)c(-c2ccc(C)cc2)c2c(N)ncnc21,"kinase still bound, per cent of control",AURKB (human),62%
same,"kinase still bound, per cent of control",MAPKAPK2 (human),97%
same,"kinase still bound, per cent of control",GRK1 (human),100%
same,"kinase still bound, per cent of control",[1],91%
same,"kinase still bound, per cent of control",FLT3 (human),71%
same,"kinase still bound, per cent of control",DDR2 (human),99%
same,"kinase still bound, per cent of control",MINK1 (human),100%
same,"kinase still bound, per cent of control",EPHA6 (human),82%
same,"kinase still bound, per cent of control",[2],100%
same,"kinase still bound, per cent of control",ROS1 (human),100%
same,"kinase still bound, per cent of control",MAP2K1 (human),100%
same,"kinase still bound, per cent of control",[3],100%
same,"kinase still bound, per cent of control",STK32C (human),100%
same,"kinase still bound, per cent of control",NEK6 (human),100%
same,"kinase still bound, per cent of control",SGK3 (human),79%
same,"kinase still bound, per cent of control",OXSR1 (human),100%
same,"kinase still bound, per cent of control",TTK (human),95%
same,"kinase still bound, per cent of control",MAP4K3 (human),100%
same,"kinase still bound, per cent of control",FGFR1 (human),98%
same,"kinase still bound, per cent of control",MARK3 (human),100%
same,"kinase still bound, per cent of control",DCLK1 (human),100%
same,"kinase still bound, per cent of control",CAMK4 (human),100%
same,"kinase still bound, per cent of control",MET (human),97%
same,"kinase still bound, per cent of control",MST1R (human),100%
same,"kinase still bound, per cent of control",CHEK1 (human),100%
same,"kinase still bound, per cent of control",MAPK13 (human),89%
same,"kinase still bound, per cent of control",FGFR2 (human),100%
same,"kinase still bound, per cent of control",PTK6 (human),90%
same,"kinase still bound, per cent of control",TESK1 (human),100%
same,"kinase still bound, per cent of control",ULK3 (human),99%
same,"kinase still bound, per cent of control",ROCK2 (human),94%
same,"kinase still bound, per cent of control",CSNK2A1 (human),100%
same,"kinase still bound, per cent of control",CAMKK1 (human),100%
same,"kinase still bound, per cent of control",MAK (human),95%
same,"kinase still bound, per cent of control",STK4 (human),94%
same,"kinase still bound, per cent of control",CDK3 (human),100%
same,"kinase still bound, per cent of control",SRMS (human),99%
same,"kinase still bound, per cent of control",NTRK2 (human),74%
same,"kinase still bound, per cent of control",MAPK6 (human),100%
same,"kinase still bound, per cent of control",CSNK2A2 (human),99%
same,"kinase still bound, per cent of control",RIOK3 (human),68%
same,"kinase still bound, per cent of control",AKT3 (human),86%
same,"kinase still bound, per cent of control",AXL (human),81%

# Source: the kinase profiling compilation of Christmann-Franck et al. (2016)
